38 compounds from US20250145642A1, “BICYCLIC HETEROARENES AND METHODS OF THEIR USE” (Kineta, Inc., priority 2021, published 2025) can be followed below.

Bounds are passed on as bounds.

full-length human PIKFYVE (N-terminal GST-fusion), sequence (Q9Y2I7 whole entry S696N/L932S/Q995L/T998S/S1033A/Q1183K, the tested form may be a part): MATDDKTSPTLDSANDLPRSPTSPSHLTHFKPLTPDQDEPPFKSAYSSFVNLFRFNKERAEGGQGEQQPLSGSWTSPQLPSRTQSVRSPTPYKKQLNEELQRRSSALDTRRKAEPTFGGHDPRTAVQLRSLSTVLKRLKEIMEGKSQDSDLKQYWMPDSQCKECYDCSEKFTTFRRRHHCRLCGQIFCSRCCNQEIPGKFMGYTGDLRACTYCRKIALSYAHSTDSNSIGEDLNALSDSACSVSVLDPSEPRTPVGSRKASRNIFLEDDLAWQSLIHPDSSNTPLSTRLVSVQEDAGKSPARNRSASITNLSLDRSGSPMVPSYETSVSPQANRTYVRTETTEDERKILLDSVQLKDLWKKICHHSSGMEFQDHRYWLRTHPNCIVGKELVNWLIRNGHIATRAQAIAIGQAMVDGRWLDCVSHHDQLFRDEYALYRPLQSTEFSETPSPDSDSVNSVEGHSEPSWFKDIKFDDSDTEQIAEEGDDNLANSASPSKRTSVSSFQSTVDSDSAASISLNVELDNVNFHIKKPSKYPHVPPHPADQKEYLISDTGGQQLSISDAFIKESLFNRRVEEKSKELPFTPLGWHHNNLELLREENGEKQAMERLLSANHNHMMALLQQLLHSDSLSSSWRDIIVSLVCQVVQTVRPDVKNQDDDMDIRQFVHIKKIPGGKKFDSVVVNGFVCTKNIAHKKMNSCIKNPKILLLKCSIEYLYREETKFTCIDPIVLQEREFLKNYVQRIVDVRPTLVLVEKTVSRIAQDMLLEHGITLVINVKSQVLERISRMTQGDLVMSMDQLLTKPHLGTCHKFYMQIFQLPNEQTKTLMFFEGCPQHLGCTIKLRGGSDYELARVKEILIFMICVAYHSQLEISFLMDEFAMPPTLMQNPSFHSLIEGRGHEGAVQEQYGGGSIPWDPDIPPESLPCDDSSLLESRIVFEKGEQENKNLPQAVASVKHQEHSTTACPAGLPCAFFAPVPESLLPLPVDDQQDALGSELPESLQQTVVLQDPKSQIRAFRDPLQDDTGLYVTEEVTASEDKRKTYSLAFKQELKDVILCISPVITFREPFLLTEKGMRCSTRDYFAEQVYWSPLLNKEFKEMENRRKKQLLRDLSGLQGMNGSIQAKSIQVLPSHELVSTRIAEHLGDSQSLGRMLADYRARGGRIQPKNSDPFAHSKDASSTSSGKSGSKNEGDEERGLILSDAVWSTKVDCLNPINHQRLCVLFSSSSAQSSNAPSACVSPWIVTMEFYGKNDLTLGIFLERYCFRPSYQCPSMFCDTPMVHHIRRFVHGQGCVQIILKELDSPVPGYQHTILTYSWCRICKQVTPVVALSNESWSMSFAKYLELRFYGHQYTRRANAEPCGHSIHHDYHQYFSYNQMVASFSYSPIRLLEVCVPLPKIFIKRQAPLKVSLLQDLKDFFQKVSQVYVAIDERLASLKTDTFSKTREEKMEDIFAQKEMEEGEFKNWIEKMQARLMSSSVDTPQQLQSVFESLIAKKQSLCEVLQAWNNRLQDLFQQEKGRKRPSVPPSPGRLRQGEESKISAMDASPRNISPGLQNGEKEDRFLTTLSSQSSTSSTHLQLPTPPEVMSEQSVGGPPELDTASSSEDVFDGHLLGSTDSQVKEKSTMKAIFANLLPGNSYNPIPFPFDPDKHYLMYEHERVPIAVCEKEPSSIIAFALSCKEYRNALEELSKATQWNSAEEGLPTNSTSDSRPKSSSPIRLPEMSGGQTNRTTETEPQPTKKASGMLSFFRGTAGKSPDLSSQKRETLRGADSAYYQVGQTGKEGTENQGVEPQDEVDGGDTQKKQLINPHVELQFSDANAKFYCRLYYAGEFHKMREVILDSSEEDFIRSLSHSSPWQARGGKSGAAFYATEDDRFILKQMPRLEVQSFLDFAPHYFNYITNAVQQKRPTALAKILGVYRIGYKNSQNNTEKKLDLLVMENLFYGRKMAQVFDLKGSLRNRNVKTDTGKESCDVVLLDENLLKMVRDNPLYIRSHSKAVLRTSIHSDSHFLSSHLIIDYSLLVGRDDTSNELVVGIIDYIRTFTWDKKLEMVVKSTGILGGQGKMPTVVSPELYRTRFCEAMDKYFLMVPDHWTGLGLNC

The target of the first test is full-length human PIKFYVE (N-terminal GST-fusion) (Homo sapiens (Human), UniProt Q9Y2I7, L932S/Q1183K/Q995L/S1033A/S696N/T998S). Kind of test: PIKfyve biochemical assay (ADP-Glo Kinase assay, Carna Biosciences). To be noted: ADP-Glo, full-length human GST-PIKFYVE, 10 μM to 3 nM; read-out: hPIKfyve IC50. The gist of the method:
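Baculovirus-expressed, glutathione-purified GST-tagged full-length human PIKFYVE (S696N/L932S/Q995L/T998S/S1033A/Q1183K) reacted with substrate and ATP in 50 mM MOPS, 1 mM DTT, pH 7.2, 1 h at room temperature. ADP formed read by ADP-Glo luminescence.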
A general note: ADP-Glo turns the ADP formed in a reaction into a luminescent signal.
As for `c1ccc(N2CCc3cnc(N4CCOCC4)nc32)cc1` [Compound 2, 4-(7-phenyl-6,7-dihydro-5H-pyrrolo[2,3-d]pyrimidin-2-yl)morpholine], the IC50 is 100 to 1000 nM.
Still for that read-out and setting: next, `c1ccc(N2CCc3c(NC4COC4)nc(N4CCOCC4)nc32)cc1` [Compound 76, 2-morpholino-N-(oxetan-3-yl)-7-phenyl-6,7-dihydro-5H-pyrrolo[2,3-d]pyrimidin-4-amine]: above 10000 nM.
Same read-out and setting: in the case of `CN1CCC(c2nc(N3CCOCC3)nc3c2CCN3c2ccccc2)C1` (centres unmarked) [Compound 121, 4-(4-(1-methylpyrrolidin-3-yl)-7-phenyl-6,7-dihydro-H-pyrrolo[2,3-d]pyrimidin-2-yl)morpholine] it was 100 to 1000 nM; in that of `c1ccc(-c2cncc(N3CCc4c(Oc5cccnc5)nc(N5CCOCC5)nc43)c2)cc1` [Compound 67, 4-(7-(5-phenylpyridin-3-yl)-4-(pyridin-3-yloxy)-6,7-dihydro-5H-pyrrolo[2,3-d]pyrimidin-2-yl)morpholine], 10 to 100 nM; in that of `CN1CCC(c2nc(N3CCOCC3)nc3c2CCN3c2ccccc2)CC1` [Compound 112, 4-(4-(1-methylpiperidin-4-yl)-7-phenyl-6,7-dihydro-5H-pyrrolo[2,3-d]pyrimidin-2-yl)morpholine], 10 to 100 nM.
Same read-out and setting: next, `c1cncc(N2CCc3c(C4CCCNC4)nc(N4CCOCC4)nc32)c1` (centres unmarked) [Compound 114, 4-(4-(piperidin-3-yl)-7-(pyridin-3-yl)-6,7-dihydro-5H-pyrrolo[2,3-d]pyrimidin-2-yl)morpholine]: 1000 to 10000 nM; `O=C(c1ccccc1)N1CCc2c(Oc3cccnc3)nc(N3CCOCC3)nc21` [Compound 72, (2-morpholino-4-(pyridin-3-yloxy)-6H-pyrrolo[2,3-d]pyrimidin-7(6H)-yl)(phenyl)methanone]: 1000 to 10000 nM; `CN1CCC(c2nc(N3CCOCC3)nc3c2ncn3-c2ccccc2)C1` (centres unmarked) [Compound 126, 4-(6-(1-methylpyrrolidin-3-yl)-9-phenyl-9H-purin-2-yl)morpholine]: 1000 to 10000 nM.
With `c1cncc(N2CCc3c(C4CCNCC4)nc(N4CCOCC4)nc32)c1` [Compound 108, 4-(4-(piperidin-4-yl)-7-(pyridin-3-yl)-6,7-dihydro-5H-pyrrolo[2,3-d]pyrimidin-2-yl)morpholine], the half-maximal inhibitory concentration (IC50) was in the range of 1000 to 10000 nM.
As to `c1cncc(COc2nc(N3CCOCC3)nc3c2CCN3C2CCNCC2)c1` [Compound 6, 4-(7-(piperidin-4-yl)-4-(pyridin-3-ylmethoxy)-6,7-dihydro-5H-pyrrolo[2,3-d]pyrimidin-2-yl)morpholine], the half-maximal inhibitory concentration (IC50) is above 10000 nM.
Still for that read-out and setting: in the case of `Cc1cccc(CN2CCc3c(Cl)nc(N4CCOCC4)nc32)c1` [Compound 41, 4-(4-chloro-7-(3-methylbenzyl)-6,7-dihydro-5H-pyrrolo[2,3-d]pyrimidin-2-yl)morpholine] it was above 10000 nM; in that of `Fc1cccc(N2CCc3c(OCc4cccnn4)nc(N4CCOCC4)nc32)c1` [Compound 8, 4-(7-(3-fluorophenyl)-4-(pyridazin-3-ylmethoxy)-6,7-dihydro-5H-pyrrolo[2,3-d]pyrimidin-2-yl)morpholine], 100 to 1000 nM.
The same measure, in the same setting: in the case of `c1ccc(N2CCc3c(OCc4cccnc4)nc(N4CCOCC4)nc32)cc1` [Compound 25, 4-(7-phenyl-4-(pyridin-3-ylmethoxy)-6,7-dihydro-5H-pyrrolo[2,3-d]pyrimidin-2-yl)morpholine] it was 10 to 100 nM.
On the same count and under the same terms, in the case of `c1cncc(N2CCc3c(OCC4CCOCC4)nc(N4CCOCC4)nc32)c1` [Compound 151, 4-{4-[(oxan-4-yl)methoxy]-7-(pyridin-3-yl)-5H,6H,7H-pyrrolo[2,3-d]pyrimidin-2-yl}morpholine] it was 100 to 1000 nM; in that of `COc1cccc(C#Cc2nc(N3CCOCC3)nc3c2CCN3c2cccnc2)c1` [Compound 85, 4-(4-((3-methoxyphenyl)ethynyl)-7-(pyridin-3-yl)-6,7-dihydro-5H-pyrrolo[2,3-d]pyrimidin-2-yl)morpholine], 100 to 1000 nM; in that of `Fc1cccc(N2CCc3c(Oc4cccnc4)nc(N4CCOCC4)nc32)c1` [Compound 56, 4-(7-(3-fluorophenyl)-4-(pyridin-3-yloxy)-6,7-dihydro-5H-pyrrolo[2,3-d]pyrimidin-2-yl)morpholine], 10 to 100 nM.
With `c1ccc(-n2ncc(N3CCc4c(Oc5cccnc5)nc(N5CCOCC5)nc43)n2)cc1` [Compound 68, 4-(7-(2-phenyl-2H-1,2,3-triazol-4-yl)-4-(pyridin-3-yloxy)-6,7-dihydro-5H-pyrrolo[2,3-d]pyrimidin-2-yl)morpholine], the IC50 fell in the range of 1000 to 10000 nM.
Turning to `c1ccc(N2CCc3c(C4CCNC4)nc(N4CCOCC4)nc32)cc1` (centres unmarked) [Compound 116, 4-(7-phenyl-4-(pyrrolidin-3-yl)-6,7-dihydro-5H-pyrrolo[2,3-d]pyrimidin-2-yl)morpholine], the half-maximal inhibitory concentration (IC50) lay within 10 to 100 nM.
Regarding `c1cncc(COc2nc(N3CCOCC3)nc3c2CCN3c2cccnc2)c1` [Compound 32, 4-(7-(pyridin-3-yl)-4-(pyridin-3-ylmethoxy)-6,7-dihydro-5H-pyrrolo[2,3-d]pyrimidin-2-yl)morpholine], the IC50 fell in the range of 100 to 1000 nM.
Still for that read-out and setting: next, `c1ccc(N2CCc3c(OCCC4CCCO4)nc(N4CCOCC4)nc32)cc1` (centres unmarked) [Compound 30, 4-(7-phenyl-4-(2-(tetrahydrofuran-2-yl)ethoxy)-6,7-dihydro-5H-pyrrolo[2,3-d]pyrimidin-2-yl)morpholine]: 100 to 1000 nM.
Still for that read-out and setting: in the case of `c1ccc(N2CCc3c(OCc4cnccn4)nc(N4CCOCC4)nc32)cc1` [Compound 15, 4-(7-phenyl-4-(pyrazin-2-ylmethoxy)-6,7-dihydro-5H-pyrrolo[2,3-d]pyrimidin-2-yl)morpholine] it was 10 to 100 nM; in that of `c1cncc(Oc2nc(N3CCOCC3)nc3c2CCN3c2cccnc2)c1` [Compound 55, 4-(7-(pyridin-3-yl)-4-(pyridin-3-yloxy)-6,7-dihydro-5H-pyrrolo[2,3-d]pyrimidin-2-yl)morpholine], 100 to 1000 nM; in that of `c1ccc(N2CCc3c(Nc4cccnc4)nc(N4CCOCC4)nc32)cc1` [Compound 77], 10 to 100 nM.
On the same count and under the same terms, next, `c1cncc(N2CCc3c(OCCC4CCCO4)nc(N4CCOCC4)nc32)c1` (centres unmarked) [Compound 31, 4-(7-(pyridin-3-yl)-4-(2-(tetrahydrofuran-2-yl)ethoxy)-6,7-dihydro-5H-pyrrolo[2,3-d]pyrimidin-2-yl)morpholine]: 10 to 100 nM; `COc1nc(N2CCOCC2)nc2c1CCN2c1ccccc1` [Compound 48, 4-(4-methoxy-7-phenyl-6,7-dihydro-5H-pyrrolo[2,3-d]pyrimidin-2-yl)morpholine]: 10 to 100 nM; `c1ccc(-c2cncc(Oc3nc(N4CCOCC4)nc4c3CCN4c3cccnc3)c2)cc1` [Compound 75, 4-(4-((5-phenylpyridin-3-yl)oxy)-7-(pyridin-3-yl)-6,7-dihydro-5H-pyrrolo[2,3-d]pyrimidin-2-yl)morpholine]: 10 to 100 nM.
As for `c1ccc(N2CCc3c(C4CNC4)nc(N4CCOCC4)nc32)cc1` [Compound 115, 4-(4-(azetidin-3-yl)-7-phenyl-6,7-dihydro-5H-pyrrolo[2,3-d]pyrimidin-2-yl)morpholine], the IC50 lay within 100 to 1000 nM.
The same measure, in the same setting: in the case of `c1cncc(N2CCc3c(COC4CCNC4)nc(N4CCOCC4)nc32)c1` (centres unmarked) [Compound 64, 4-(7-(pyridin-3-yl)-4-((pyrrolidin-3-yloxy)methyl)-6,7-dihydro-5H-pyrrolo[2,3-d]pyrimidin-2-yl)morpholine] it was 1000 to 10000 nM; in that of “4-(6-methyl-7-(pyridin-4-yl)-4-(tetrahydrofuran-3-yl)-6,7-dihydro-5H-pyrrolo[2,3-d]pyrimidin-2-yl)morpholine [Compound 98]”, 10 to 100 nM; in that of `CCN1CCCC(COc2nc(N3CCOCC3)nc3c2CCN3c2cccnc2)C1` (centres unmarked) [Compound 10, 4-(4-((1-ethylpiperidin-3-yl)methoxy)-7-(pyridin-3-yl)-6,7-dihydro-5H-pyrrolo[2,3-d]pyrimidin-2-yl)morpholine], 100 to 1000 nM.
Take `c1ccc(N2CCc3c(C4CCOCC4)nc(N4CCOCC4)nc32)cc1` [Compound 86, 4-(7-phenyl-4-(tetrahydro-2H-pyran-4-yl)-6,7-dihydro-5H-pyrrolo[2,3-d]pyrimidin-2-yl)morpholine]: the IC50 lay within 100 to 1000 nM.
On the same count and under the same terms, next, `Cc1nc(N2CCOCC2)nc2c1CCN2c1ccccc1` [Compound 45, 4-(4-methyl-7-phenyl-6,7-dihydro-5H-pyrrolo[2,3-d]pyrimidin-2-yl)morpholine]: 100 to 1000 nM.
The same measure, in the same setting: in the case of `c1cncc(-c2nc(N3CCOCC3)nc3c2CCN3c2ccc3c(c2)OCO3)c1` [Compound 102, 4-(7-(benzo[d][1,3]dioxol-5-yl)-4-(pyridin-3-yl)-6,7-dihydro-5H-pyrrolo[2,3-d]pyrimidin-2-yl)morpholine] it was 10 to 100 nM; in that of `c1cncc(-c2nc(N3CCOCC3)nc3c2CCN3c2ccc3c(c2)OCCO3)c1` [Compound 103, 4-(7-(2,3-dihydrobenzo[b][1,4]dioxin-6-yl)-4-(pyridin-3-yl)-6,7-dihydro-5H-pyrrolo[2,3-d]pyrimidin-2-yl)morpholine], below 10 nM.
Same read-out and setting: in the case of `c1ccc(N2CCc3c(OCc4ccncc4)nc(N4CCOCC4)nc32)cc1` [Compound 26, 4-(7-phenyl-4-(pyridin-4-ylmethoxy)-6,7-dihydro-5H-pyrrolo[2,3-d]pyrimidin-2-yl)morpholine] it was 100 to 1000 nM.
Turning to `c1ncc(N2CCc3c(OCC4CCOCC4)nc(N4CCOCC4)nc32)cn1` [Compound 9, 4-(7-(pyrimidin-5-yl)-4-((tetrahydro-2H-pyran-4-yl)methoxy)-6,7-dihydro-5H-pyrrolo[2,3-d]pyrimidin-2-yl)morpholine], the IC50 lay within 100 to 1000 nM.

Still in this test, the particulars now being: values plotted in FIG. 7; read-out: PIKFYVE Biochemistry (IC50).
With `O=c1c(CCOc2cccnc2)cc2ncncc2n1-c1ccccc1`, the IC50 is above 10000 nM.
The same measure, in the same setting: next, `O=c1ccn(Cc2nc(N3CCOCC3)cc(-n3nccc3-c3ccccc3)n2)cc1`: above 10000 nM.

What is called IC50 is the point on the concentration scale where inhibition reaches its midpoint.
